Reference: patent publication US20220064105A1, “CRYSTALLINE EDG-2 RECEPTOR ANTAGONIST AND METHODS OF MAKING” (Sanofi, priority 2020, published 2022)
Converted amounts (≈) assume the structure as drawn. Marks after values point to notes of the source that are not given here.

Key:
[1] = Solubility of Compound I in solvents at room temperature (about 25° C.); assay type: physicochemical; details: thermodynamic from solid
Description: Compound I was dissolved in a variety of solvents at room temperature (about 25° C.) to provide solutions of Compound I with a maximum concentration of 10 mg/mL. The input material in these experiments was a mixture of polymorphic forms 1, 2, and 3.
The maximum concentration used in this set of experiments was 10 mg/mL. Solubility was highest in THF at >10 mg/mL. […] The solubility was estimated at less than 2 mg/mL for: 1-butanol, butyl acetate, hexane, ethanol, ethyl acetate, isobutyl alcohol, 1-pentanol, isopropanol, acetonitrile, dichloromethane, chloroform, and water.

[2] = Estimated hot solubility in solvents at elevated temperature (approximately solvent boiling point); assay type: physicochemical; details: thermodynamic from solid, read-out: Hot Solubility (est)
Description: Compound I was dissolved in a variety of solvents at elevated temperature (approximately at solvent boiling point) to provide solutions of Compound I with a maximum concentration of 15 mg/mL. The input material in these experiments was a mixture of polymorphic forms 1, 2, and 3.
When concentrations of Compound I was greater than 2 mg/mL, the solutions were filtered and evaporated at 25° C. to isolate the solid.

[3] = test system: mouse model of skin fibrosis; details: cited from earlier work
[4] = test system: patients with diffuse cutaneous systemic sclerosis SSc (dcSSc); details: cited from earlier work
[5] = Slurry stability study at room temperature (25° C.), 4 weeks, resulting form by FTIR; assay type: physicochemical; details: 25° C., 4 weeks, FTIR
Description: Slurry stability Maturation studies were initially conducted for the purpose of identifying the most […] stable form at room temperature (25° C.).
In this set of experiments, both the individual forms and mixtures of forms were slurried in several solvents for 4 weeks, then filtered and analyzed to determine the resulting form. The first set of experiments included pure Form 1, Form 2, Form 3, and mixtures of these forms in equal amounts. The solvents included methanol, ethyl acetate, MEK, and methyl THF in order to investigate a range of solvent polarity. Additional experiments were conducted with a mixture of Form 1 and Form 4 in MEK and methanol.
Analysis was performed by FTIR due to ease of analysis for small quantities. It is interesting to note that the acid carbonyl is shifted to a different location for each polymorph. The results for the first set of experiments are listed below, comparing the starting form with the final form.

[6] = Physical stability of solid state forms at 80° C./75% RH, by FTIR; assay type: physicochemical; details: 1 week (7 days), open glass vials
Description: The physical stability of Forms 1, 2, and 3 was investigated at 80° C./75% RH in order to determine if interconversion was observed. The samples were examined by FTIR after stressing 1 week in open glass vials.

[7] = Solubility of polymorphs at pH 7.4 in phosphate buffer at 25° C.; assay type: physicochemical; details: pH 7.4 phosphate buffer; for Concentration (equilibrium solubility): 24 hr
Description: The solubility of the different polymorphs was determined at pH 7.4 in phosphate buffer at 25° C. Samples were analyzed as a function of time for each form to determine the equilibrium values. The residual solids from each sample were analyzed to verify that the form was unchanged during the experiment. The concentration (mg/mL) versus time data is listed below for each form: […]

[8] = Slurry conversion studies at 40-70° C. with Forms 1 and 2; assay type: physicochemical
Description: Slurry conversation studies were also conducted at 40-70° C. with Forms 1 and 2 to determine a transition temperature between the forms. A mixture of Form 1 and Form 2 at a (1:1 ratio) was slurried at 40° C., 50° C., 60° C., and 70° C. in two different solvents at each temperature and then analyzed to determine the direction of transformation. At 40° C. and 50° C., Methanol and MEK were used. At 60° C. and 70° C. MEK and 1-Pentanol were used.

SMILES: COc1ccc(C(=O)NC2(C(=O)O)Cc3ccccc3C2)cc1OCCc1cccc(C)c1 [Compound I, 2-(4-methoxy-3-(3-methylphenethoxy)benzamido)-2,3-dihydro-1H-indene-2-carboxylic acid]
- solubility ([1]; organic solvent or mixture, 1-butanol, read-out: Solubility (estimated)): < 2000 µg/mL
- solubility ([1]; organic solvent or mixture, 1-pentanol, read-out: Solubility (estimated)): < 2000 µg/mL
- solubility ([1]; organic solvent or mixture, MEK, read-out: Solubility): 4000 to 6000 µg/mL (≈ 8.98 to 13.5 mM)
- solubility ([1]; organic solvent or mixture, THF, read-out: Solubility): > 10000 µg/mL
- solubility ([1]; organic solvent or mixture, acetone, read-out: Solubility): 4000 to 6000 µg/mL (≈ 8.98 to 13.5 mM)
- solubility ([1]; organic solvent or mixture, acetonitrile, read-out: Solubility (estimated)): < 2000 µg/mL
- solubility ([1]; organic solvent or mixture, butyl acetate, read-out: Solubility (estimated)): < 2000 µg/mL
- solubility ([1]; organic solvent or mixture, chloroform, read-out: Solubility (estimated)): < 2000 µg/mL
- solubility ([1]; organic solvent or mixture, dichloromethane, read-out: Solubility (estimated)): < 2000 µg/mL
- solubility ([1]; organic solvent or mixture, ethanol, read-out: Solubility (estimated)): < 2000 µg/mL
- solubility ([1]; organic solvent or mixture, ethyl acetate, read-out: Solubility (estimated)): < 2000 µg/mL
- solubility ([1]; organic solvent or mixture, hexane, read-out: Solubility (estimated)): < 2000 µg/mL
- solubility ([1]; organic solvent or mixture, isobutyl alcohol, read-out: Solubility (estimated)): < 2000 µg/mL
- solubility ([1]; organic solvent or mixture, isopropanol, read-out: Solubility (estimated)): < 2000 µg/mL
- solubility ([1]; organic solvent or mixture, methanol, read-out: Solubility): 2000 to 3000 µg/mL (≈ 4.49 to 6.73 mM)
- solubility ([1]; water, read-out: Solubility (estimated)): < 2000 µg/mL
- solubility ([2]; 40 °C, organic solvent or mixture, Dichloromethane (DCM)): < 4000 µg/mL
- solubility ([2]; 56 °C, organic solvent or mixture, Acetone): > 10000 µg/mL
- solubility ([2]; 61 °C, organic solvent or mixture, Chloroform): 4000 to 5000 µg/mL (≈ 8.98 to 11.2 mM)
- solubility ([2]; 65 °C, organic solvent or mixture, Methanol): > 10000 µg/mL
- solubility ([2]; 69 °C, organic solvent or mixture, Hexane): < 2000 µg/mL
- solubility ([2]; 77 °C, organic solvent or mixture, Ethyl Acetate): 5000 to 10000 µg/mL (≈ 11.2 to 22.4 mM)
- solubility ([2]; 78 °C, organic solvent or mixture, Ethanol): > 10000 µg/mL
- solubility ([2]; 80 °C, organic solvent or mixture, Methyl Ethyl Ketone (MEK)): > 15000 µg/mL
- solubility ([2]; 82 °C, organic solvent or mixture, 2-Propanol): 7000 to 10000 µg/mL (≈ 15.7 to 22.4 mM)
- solubility ([2]; 82 °C, organic solvent or mixture, Acetonitrile): 7000 to 10000 µg/mL (≈ 15.7 to 22.4 mM)
- solubility ([2]; 100 °C, Water): < 2000 µg/mL
- solubility ([2]; 108 °C, organic solvent or mixture, Isobutyl Alcohol): > 10000 µg/mL
- solubility ([2]; 118 °C, organic solvent or mixture, 1-Butanol): > 10000 µg/mL
- solubility ([2]; 126 °C, organic solvent or mixture, Butyl Acetate): ~10000 µg/mL (≈ 22.4 mM)
- solubility ([2]; 138 °C, organic solvent or mixture, 1-Pentanol): > 10000 µg/mL
- Collagen content [3]: reduced collagen content
- Dermal thickening [3]: reversed dermal thickening
- Myofibroblast differentiation [3]: significantly inhibited myofibroblast differentiation
- Outcome measures [4]: improved outcome measures
- Target engagement [4]: demonstrated target engagement
- Tolerability [4]: well tolerated

SMILES: COc1ccc(C(=O)NC2(C(=O)O)Cc3ccccc3C2)cc1OCCc1cccc(C)c1 [Form 3, 2-(4-methoxy-3-(3-methylphenethoxy)benzamido)-2,3-dihydro-1H-indene-2-carboxylic acid]
- Final form after slurry ([5]; slurried in MEK): converts to crystalline Form 1
- Final form after slurry ([5]; slurried in ethyl acetate): converts to crystalline Form 1
- Final form after slurry ([5]; slurried in methanol): converts to crystalline Form 1
- Final form after slurry ([5]; slurried in methyl THF): converts to crystalline Form 1
- Change in FTIR spectrum after storage [6]: unchanged FTIR
- Equilibrium solubility relative to Form 1 ([7]; 24 hours): more than double
- Concentration (solubility) ([7]; 1 hr): 83 µg/mL
- Concentration (solubility) ([7]; 2 hr): 93 µg/mL
- Concentration (solubility) ([7]; 3 hr): 95 µg/mL
- Concentration (equilibrium solubility) [7]: 0.097 mg/mL

SMILES: COc1ccc(C(=O)NC2(C(=O)O)Cc3ccccc3C2)cc1OCCc1cccc(C)c1 [Forms 1, 2, 3]
- Final form after slurry ([5]; slurried in MEK): Form 1
- Final form after slurry ([5]; slurried in methanol): Form 1
- Final form after slurry ([5]; slurried in methyl THF): Form 1

SMILES: COc1ccc(C(=O)NC2(C(=O)O)Cc3ccccc3C2)cc1OCCc1cccc(C)c1 [Form 4, 2-(4-methoxy-3-(3-methylphenethoxy)benzamido)-2,3-dihydro-1H-indene-2-carboxylic acid]
- Equilibrium solubility relative to Form 1 ([7]; 24 hours): more than double
- Concentration (solubility) ([7]; 1 hr): 79 µg/mL
- Concentration (solubility) ([7]; 2 hr): 89 µg/mL
- Concentration (solubility) ([7]; 3 hr): 105 µg/mL
- Concentration (equilibrium solubility) [7]: 0.102 mg/mL

SMILES: COc1ccc(C(=O)NC2(C(=O)O)Cc3ccccc3C2)cc1OCCc1cccc(C)c1 [mixtures of Form 4 and Form 1]
- Final form after slurry ([5]; slurried in MEK): convert to Form 1
- Final form after slurry ([5]; slurried in methanol): convert to Form 1

SMILES: COc1ccc(C(=O)NC2(C(=O)O)Cc3ccccc3C2)cc1OCCc1cccc(C)c1 [Form 2, 2-(4-methoxy-3-(3-methylphenethoxy)benzamido)-2,3-dihydro-1H-indene-2-carboxylic acid]
- Final form after slurry ([5]; slurried in MEK): converts to crystalline Form 1
- Final form after slurry ([5]; slurried in ethyl acetate): Form 2
- Final form after slurry ([5]; slurried in methanol): Form 2
- Final form after slurry ([5]; slurried in methyl THF): Form 2
- Resulting form after slurry ([8]; slurried in MEK at 40° C.): converts to crystalline Form 1
- Resulting form after slurry ([8]; slurried in MEK at 50° C.): converts to crystalline Form 1
- Resulting form after slurry ([8]; slurried in methanol at 40° C.): converts to crystalline Form 1
- Resulting form after slurry ([8]; slurried in methanol at 50° C.): converts to crystalline Form 1
- Change in FTIR spectrum after storage [6]: unchanged FTIR
- 24 hour solubility greater than Form 1 ([7]; 24 hours): more than 30%
- Concentration (solubility) ([7]; 1 hr): 34 µg/mL
- Concentration (solubility) ([7]; 2 hr): 39 µg/mL
- Concentration (solubility) ([7]; 3 hr): 43 µg/mL
- Concentration (equilibrium solubility) [7]: 0.057* mg/mL

SMILES: COc1ccc(C(=O)NC2(C(=O)O)Cc3ccccc3C2)cc1OCCc1cccc(C)c1 [mixture of Form 1 and Form 2]
- Resulting form after slurry ([8]; slurried in 1-pentanol at 60° C.): Form 2
- Resulting form after slurry ([8]; slurried in 1-pentanol at 70° C.): Form 2
- Resulting form after slurry ([8]; slurried in MEK at 40° C.): Form 1
- Resulting form after slurry ([8]; slurried in MEK at 50° C.): Form 1
- Resulting form after slurry ([8]; slurried in MEK at 60° C.): Form 2
- Resulting form after slurry ([8]; slurried in MEK at 70° C.): Form 2
- Resulting form after slurry ([8]; slurried in methanol at 40° C.): Form 1
- Resulting form after slurry ([8]; slurried in methanol at 50° C.): Form 1
